Source: paper PMC7422936 (European journal of medicinal chemistry, 2020)
“And” between values parts separate entries of the source, which are not always exact repeats. Equal entries are not always repeated. Where two headings read alike, the source gives them in different places.

Key:
CXCR4 = CXCR4 (Homo sapiens, UniProt P61073); experiment: In vitro binding assay
[1] = test system: carrageenan-induced paw edema; experiment: Carrageenan-induced mouse paw edema model; format: in vivo

CXCR4, sequence (P61073 whole entry): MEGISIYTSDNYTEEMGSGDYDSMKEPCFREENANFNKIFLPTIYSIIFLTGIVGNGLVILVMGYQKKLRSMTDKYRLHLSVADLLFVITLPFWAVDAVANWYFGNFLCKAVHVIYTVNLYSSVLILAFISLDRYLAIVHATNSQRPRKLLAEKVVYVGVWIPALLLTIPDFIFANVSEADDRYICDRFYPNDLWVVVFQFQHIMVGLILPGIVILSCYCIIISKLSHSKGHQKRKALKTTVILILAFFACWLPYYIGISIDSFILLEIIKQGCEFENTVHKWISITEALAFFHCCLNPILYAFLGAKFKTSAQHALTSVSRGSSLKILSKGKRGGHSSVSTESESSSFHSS

`N=C(N)NCCC[C@H](N)C(=O)NC1CCN(C(=O)CCn2ccc3ccncc32)CC1` [Z7R] was tested, and the EC50 (CXCR4) was 1 nM, the IC50 (CXCR4) was 1.25 nM and the “Reduction of edema (paw) weight” value ([1]; 10 mg/kg i.p. once daily, 74 h after carrageenan, n = 5, versus untreated mice) was 50% and ~ 50%. For the same molecule, the “Histology / immunohistochemistry of paw tissue” value ([1]; 10 mg/kg i.p., H&E and anti-CXCR4 staining) was “observable decrease in the number of inflammatory cells”.
Work on `NC(C(=O)NC1CCN(C(=O)CCn2ccc3ccncc32)CC1)c1ccccc1` (centres unmarked) [ZINC72372983] yielded an EC50 (CXCR4; read-out: Binding Affinity (EC), EC = concentration at which the compound blocks > 50% of rhodamine Red X-TN14003, MDA-MB-231 cells, tested at 1, 10, 100, 1000 nM) of 100 nM.
